Assay: xn = mol fraction of the nth substance listed
Details: Liquid, Vibrating tube method

CCCCCCC [heptane] + CCO
mass density [kg/m3]
Details	x2 = 0	x2 = 0.125	x2 = 0.25	x2 = 0.375	x2 = 0.5	x2 = 0.625	x2 = 0.75	x2 = 0.875
313.15 K, 35000 kPa	696.9	701.6	707	714.3	723.6	735	750.3	770.6
313.15 K, 40000 kPa	700.4	705.2	710.6	717.9	727.2	738.6	753.8	774.1
313.15 K, 45000 kPa	703.9	708.6	714.1	721.3	730.8	742.1	757.3	777.6
313.15 K, 50000 kPa	707.1	711.9	717.4	724.7	734.1	745.4	760.6	780.9
313.15 K, 55000 kPa	710.1	715.1	720.6	727.9	737.3	748.6	763.8	784.1
313.15 K, 60000 kPa	713.1	718.1	723.6	730.9	740.2	751.6	766.9	787.1
313.15 K, 65000 kPa	716	721	726.6	733.9	743.2	754.7	769.9	790.1
323.15 K, 100 kPa	657.7	661.8	666.9	674.1	683.5	695	710.6	731.7
323.15 K, 5000 kPa	663.4	667.4	672.6	679.7	689.2	700.5	716.1	737
323.15 K, 10000 kPa	668.7	672.7	678	685.2	694.6	705.8	721.3	742.1
323.15 K, 15000 kPa	673.4	677.6	682.9	690	699.4	710.7	726.1	746.7
323.15 K, 20000 kPa	678	682.2	687.6	694.7	704	715.3	730.6	751.1
323.15 K, 25000 kPa	682.5	686.8	692.1	699.2	708.5	719.8	735.1	755.5
323.15 K, 30000 kPa	686.5	690.9	696.2	703.4	712.7	723.9	739.1	759.5
323.15 K, 35000 kPa	690.4	694.7	700	707.3	716.6	727.8	743	763.4
323.15 K, 40000 kPa	694.1	698.5	703.7	711	720.4	731.6	746.8	767
323.15 K, 45000 kPa	697.7	702	707.4	714.6	724	735.2	750.3	770.6
323.15 K, 50000 kPa	701.1	705.4	710.8	718	727.4	738.6	753.8	774
323.15 K, 55000 kPa	704.3	708.6	714	721.3	730.6	741.9	757	777.2
323.15 K, 60000 kPa	707.4	711.8	717.2	724.5	733.8	745.1	760.2	780.3
323.15 K, 65000 kPa	710.3	714.7	720.2	727.5	736.8	748.1	763.2	783.4
333.15 K, 100 kPa	649.1	652.3	657.3	664.5	673.7	685.1	700.9	722.2
333.15 K, 5000 kPa	655.2	658.4	663.4	670.7	679.9	691.2	706.8	727.9
333.15 K, 10000 kPa	661	664.2	669.4	676.6	685.7	697	712.4	733.4
333.15 K, 15000 kPa	666.3	669.6	674.7	681.9	691.1	702.3	717.7	738.5
333.15 K, 20000 kPa	670.9	674.4	679.6	686.7	696	707.1	722.5	743.2
333.15 K, 25000 kPa	675.4	678.8	684.3	691.4	700.6	711.8	727	747.5
333.15 K, 30000 kPa	679.7	683.1	688.7	695.7	704.9	716	731.3	751.7
333.15 K, 35000 kPa	683.8	687.1	692.8	699.9	709.1	720.1	735.4	755.8
333.15 K, 40000 kPa	687.6	690.9	696.6	703.8	713	724	739.2	759.6
333.15 K, 45000 kPa	691.3	694.6	700.4	707.5	716.7	727.7	743	763.3
333.15 K, 50000 kPa	694.8	698.2	704	711.2	720.3	731.4	746.6	766.8
333.15 K, 55000 kPa	698.4	701.7	707.6	714.7	723.9	735	750.2	770.4
333.15 K, 60000 kPa	701.5	705	710.8	718	727.2	738.2	753.4	773.6
333.15 K, 65000 kPa	704.7	708.1	714	721.3	730.4	741.4	756.7	776.8

— the NIST ThermoML archive (doi:10.1021/je050261u)
